Results from PubChem BioAssay AID300 (DTP/NCI, 2004).
Values joined by “and” are separate entries in the source; they are usually repeats but may differ in a detail not shown here. Equal values may be shown once. Inconclusive results are not listed. The calls were made as follows: active = survival T/C of 150% or more; inactive = T/C below 125% in these data.

Test system: Madison 109 lung carcinoma i.m., mice, median survival
Test: NCI In Vivo Anticancer Drug Screen. Data for tumor model Madison 109 Lung Carcinoma (intramuscular) in unknown mice
Settings: endpoint: median survival time, higher = longer survival
Experimental: The antitumor activity of compounds was measured in mice bearing transplantable tumors. Survival or tumor size were measured and the results are expressed as the measurement made in the treated group (T) divided by the measurement made in the vehicle treated control group (C). The tumor model used in this assay is Madison 109 Lung Carcinoma (intramuscular) in unknown mice

[1] = dose: 10.0 mg/kg/injection, schedule: Q01DX009 (ip), vehicle: water
[2] = dose: 40.0 mg/kg/injection, schedule: Q01DX009 (ip), vehicle: water
[3] = dose: 80.0 mg/kg/injection, schedule: Q01DX009 (ip), vehicle: water
[4] = dose: 10.0 mg/kg/injection, schedule: Q02DX009 (ip), vehicle: water
[5] = dose: 20.0 mg/kg/injection, schedule: Q02DX009 (ip), vehicle: water
[6] = dose: 80.0 mg/kg/injection, schedule: Q02DX009 (ip), vehicle: water
[7] = dose: 20.0 mg/kg/injection, schedule: Q01DX009 (ip), vehicle: water
[8] = dose: 2.0 mg/kg/injection, schedule: Q01DX009 (ip), vehicle: other
[9] = dose: 4.0 mg/kg/injection, schedule: Q01DX009 (ip), vehicle: other
[10] = dose: 8.0 mg/kg/injection, schedule: Q01DX009 (ip), vehicle: other
[11] = dose: 16.0 mg/kg/injection, schedule: Q01DX009 (ip), vehicle: other

Measured: T/C

O=[N+]([O-])c1ccc(Cl)c([N+](=O)[O-])c1
inactive: [1] 119 % of control | dose: 40.0 mg/kg/injection, schedule: Q01DX001 (ip), vehicle: water 116 % of control | [2] 119 % of control | dose: 80.0 mg/kg/injection, schedule: Q01DX001 (ip), vehicle: water 100 % of control | [3] 109 % of control | dose: 160.0 mg/kg/injection, schedule: Q01DX001 (ip), vehicle: water 109 % of control | dose: 160.0 mg/kg/injection, schedule: Q01DX009 (ip), vehicle: water 116 % of control | dose: 320.0 mg/kg/injection, schedule: Q01DX001 (ip), vehicle: water 119 % of control | dose: 640.0 mg/kg/injection, schedule: Q01DX001 (ip), vehicle: water 90 % of control

O=[N+]([O-])c1ccc([N+](=O)[O-])c(Cl)c1
inactive: [4] 122 % of control | [5] 122 % of control | dose: 40.0 mg/kg/injection, schedule: Q02DX009 (ip), vehicle: water 122 % of control | [6] 90 % of control

C[C@@H]1C[C@@H]([C@H](O)CC2CC(=O)NC(=O)C2)C(=O)[C@@H](C)C1
inactive: [1] 94 % of control | [7] 100 % of control

NC(C=O)C(O)C(O)C(O)CO (configuration not stated)
inactive: dose: 400.0 mg/kg/injection, schedule: Q01DX009 (ip), vehicle: saline 98 % of control | dose: 800.0 mg/kg/injection, schedule: Q01DX009 (ip), vehicle: saline 93 % of control | dose: 1600.0 mg/kg/injection, schedule: Q01DX009 (ip), vehicle: saline 96 % of control | dose: 3200.0 mg/kg/injection, schedule: Q01DX009 (ip), vehicle: saline 110 % of control

CC1=C(/C=C/C(C)=C/C=C/C(C)=C/C(=O)O)C(C)(C)CCC1
inactive: dose: 25.0 mg/kg/injection, schedule: Q01DX009 (ip), vehicle: other 94 % of control | dose: 50.0 mg/kg/injection, schedule: Q01DX009 (ip), vehicle: other 95 % of control

COC1=C(OC)C(=O)C(C/C=C(\C)CC/C=C(\C)CC/C=C(\C)CC/C=C(\C)CC/C=C(\C)CC/C=C(\C)CC/C=C(\C)CC/C=C(\C)CC/C=C(\C)CCC=C(C)C)=C(C)C1=O
inactive: dose: 1.0 mg/kg/injection, schedule: Q01DX009 (ip), vehicle: other 95 % of control | [8] 97 % of control | [9] 94 % of control | [10] 94 % of control | [11] 102 % of control

COc1ccc(C[C@H](N)C(=O)NC2C(CO)OC(n3cnc4c(N(C)C)ncnc43)C2O)cc1 (some centres not stated)
inactive: [1] 104 % of control | [7] 105 % of control | [2] 104 % of control | [3] 105 % of control

CC(=O)c1cccc(NC2C(N)C(NC(=O)N(C)C)(C(C)O)C(C)(O)C2(O)COC(=O)c2c(C)cccc2O)c1 (configuration not stated)
inactive: dose: 0.05 mg/kg/injection, schedule: Q01DX009 (ip), vehicle: other 111 % of control | dose: 0.3 mg/kg/injection, schedule: Q01DX009 (ip), vehicle: other 96 % of control | dose: 0.6 mg/kg/injection, schedule: Q01DX009 (ip), vehicle: other 119 % of control

O=C1OC(C(O)CO)C(O)=C1O (configuration not stated)
inactive: dose: 400.0 mg/kg/injection, schedule: Q01DX009 (ip), vehicle: other 98 % of control | dose: 800.0 mg/kg/injection, schedule: Q01DX009 (ip), vehicle: other 96 % of control | dose: 1600.0 mg/kg/injection, schedule: Q01DX009 (ip), vehicle: other 98 % of control

O=[N+]([O-])c1cccc([N+](=O)[O-])c1Cl
inactive: [4] 105 % of control | [5] 113 % of control | [6] 122 % of control | dose: 160.0 mg/kg/injection, schedule: Q02DX009 (ip), vehicle: water 112 % of control and 103 % of control

CN(Cc1cnc2nc(N)nc(N)c2n1)c1ccc(C(=O)N[C@@H](CCC(=O)O)C(=O)O)cc1
inactive: dose: 0.07 mg/kg/injection, schedule: Q01DX009 (ip), vehicle: sodium bicarbonate 99 % of control | dose: 0.15 mg/kg/injection, schedule: Q01DX009 (ip), vehicle: sodium bicarbonate 123 % of control | dose: 0.3 mg/kg/injection, schedule: Q01DX009 (ip), vehicle: sodium bicarbonate 108 % of control | dose: 0.6 mg/kg/injection, schedule: Q01DX009 (ip), vehicle: sodium bicarbonate 111 % of control

C[C@]12C=CC(=O)C=C1CC[C@@H]1[C@@H]2C(=O)C[C@@]2(C)[C@H]1CC[C@]2(O)C(=O)CO
inactive: dose: 5.0 mg/kg/injection, schedule: Q01DX009 (ip), vehicle: saline 113 % of control | dose: 10.0 mg/kg/injection, schedule: Q01DX009 (ip), vehicle: saline 117 % of control | dose: 40.0 mg/kg/injection, schedule: Q01DX009 (ip), vehicle: saline 120 % of control

O=S(=O)(n1ccnc1)C(F)(F)F
inactive: dose: 5.0 mg/kg/injection, schedule: Q01DX001 (ip), vehicle: saline 98 % of control | dose: 8.4 mg/kg/injection, schedule: Q01DX001 (ip), vehicle: saline 88 % of control | dose: 14.0 mg/kg/injection, schedule: Q01DX001 (ip), vehicle: saline 92 % of control

COc1cccc2c1C(=O)c1c(O)c3c(c(O)c1C2=O)C[C@@](O)(C(C)=O)C[C@@H]3OC1CC(N)C(O)C(C)O1 (some centres not stated)
inactive: dose: 0.25 mg/kg/injection, schedule: Q04DX003 (ip), vehicle: water 108 % of control | dose: 0.5 mg/kg/injection, schedule: Q04DX003 (ip), vehicle: water 120 % of control | dose: 1.0 mg/kg/injection, schedule: Q01DX009 (ip), vehicle: water 111 % of control | dose: 1.0 mg/kg/injection, schedule: Q04DX003 (ip), vehicle: water 94 % of control | dose: 1.5 mg/kg/injection, schedule: Q01DX009 (ip), vehicle: water 55 % of control | dose: 1.5 mg/kg/injection, schedule: Q04DX003 (ip), vehicle: water 122 % of control | dose: 2.5 mg/kg/injection, schedule: Q01DX009 (ip), vehicle: water 32 % of control

O=C(O)c1c(Cl)c(Cl)c(Cl)c(Cl)c1-c1c2cc(I)c(=O)c(I)c-2oc2c(I)c(O)c(I)cc12
inactive: dose: 4.0 mg/kg/injection, schedule: Q01DX009 (ip), vehicle: water 90 % of control | dose: 8.0 mg/kg/injection, schedule: Q01DX009 (ip), vehicle: water 102 % of control | dose: 25.0 mg/kg/injection, schedule: Q01DX009 (ip), vehicle: water 100 % of control | dose: 32.0 mg/kg/injection, schedule: Q01DX009 (ip), vehicle: water 107 % of control | dose: 50.0 mg/kg/injection, schedule: Q01DX009 (ip), vehicle: water 106 % of control | dose: 64.0 mg/kg/injection, schedule: Q01DX009 (ip), vehicle: water 99 % of control

COC1=C(N)C(=O)c2nc(-c3nc(C(=O)O)c(C)c(-c4ccc(OC)c(OC)c4O)c3N)ccc2C1=O
inactive: dose: 2.0 micrograms/kg/injection, schedule: Q01DX009 (ip), vehicle: other 102 % of control | dose: 5.0 micrograms/kg/injection, schedule: Q01DX009 (ip), vehicle: other 103 % of control and 111 % of control | dose: 10.0 micrograms/kg/injection, schedule: Q01DX009 (ip), vehicle: other 106 % of control and 116 % of control | dose: 20.0 micrograms/kg/injection, schedule: Q01DX009 (ip), vehicle: other 115 % of control and 117 % of control | dose: 30.0 micrograms/kg/injection, schedule: Q01DX009 (ip), vehicle: other 109 % of control

Cc1c2ccncc2c(C)c2c1[nH]c1ccccc12
inactive: [8] 119 % of control | [9] 121 % of control | [10] 111 % of control | [11] 111 % of control

CN(C)/N=N/c1nc[nH]c1C(N)=O
inactive: dose: 200.0 mg/kg/injection, schedule: Q01DX009 (ip), vehicle: Klucel (hydroxypropylcellulose) (HPC) 121 % of control

Cc1c(N)nc([C@H](CC(N)=O)NC[C@H](N)C(N)=O)nc1C(=O)N[C@H](C(=O)N[C@H](C)[C@@H](O)[C@H](C)C(=O)N[C@H](C(=O)NCCc1nc(-c2nc(C(=O)NCCC[S+](C)C)cs2)cs1)[C@@H](C)O)C(OC1OC(CO)C(O)C(O)C1OC1OC(CO)C(O)C(OC(N)=O)C1O)c1cnc[nH]1 (some centres not stated)
inactive: dose: 2.5 mg/kg/injection, schedule: Q04DX003 (ip), vehicle: saline 120 % of control | dose: 5.0 mg/kg/injection, schedule: Q04DX003 (ip), vehicle: saline 123 % of control | dose: 20.0 mg/kg/injection, schedule: Q04DX003 (ip), vehicle: saline 108 % of control | dose: 30.0 mg/kg/injection, schedule: Q04DX003 (ip), vehicle: saline 100 % of control
